Data on 1 molecule can be found in patent US9458187B2, “Methods for treatment of inflammatory conditions using S-[4-(3-fleuro-3-methylbutyryloxy)but-2-ynyl]6α, 9α-difluoro-17α-(furan-2-yl) carbonyloxy-11β-hydroxy-16α-methyl-3-oxoandrosta-1,4-diene-17β-carbothioate” (Sun Pharma Advanced Research Company Limited, priority 2013, dated 2016).

One data set addresses T1, Aldosterone receptor (Rattus norvegicus, UniProt P22199).
T1 construct: aldosterone (Wistar rat kidney); from tissue; host or cells: Wistar rat kidney
T1 sequence (P22199 1-981): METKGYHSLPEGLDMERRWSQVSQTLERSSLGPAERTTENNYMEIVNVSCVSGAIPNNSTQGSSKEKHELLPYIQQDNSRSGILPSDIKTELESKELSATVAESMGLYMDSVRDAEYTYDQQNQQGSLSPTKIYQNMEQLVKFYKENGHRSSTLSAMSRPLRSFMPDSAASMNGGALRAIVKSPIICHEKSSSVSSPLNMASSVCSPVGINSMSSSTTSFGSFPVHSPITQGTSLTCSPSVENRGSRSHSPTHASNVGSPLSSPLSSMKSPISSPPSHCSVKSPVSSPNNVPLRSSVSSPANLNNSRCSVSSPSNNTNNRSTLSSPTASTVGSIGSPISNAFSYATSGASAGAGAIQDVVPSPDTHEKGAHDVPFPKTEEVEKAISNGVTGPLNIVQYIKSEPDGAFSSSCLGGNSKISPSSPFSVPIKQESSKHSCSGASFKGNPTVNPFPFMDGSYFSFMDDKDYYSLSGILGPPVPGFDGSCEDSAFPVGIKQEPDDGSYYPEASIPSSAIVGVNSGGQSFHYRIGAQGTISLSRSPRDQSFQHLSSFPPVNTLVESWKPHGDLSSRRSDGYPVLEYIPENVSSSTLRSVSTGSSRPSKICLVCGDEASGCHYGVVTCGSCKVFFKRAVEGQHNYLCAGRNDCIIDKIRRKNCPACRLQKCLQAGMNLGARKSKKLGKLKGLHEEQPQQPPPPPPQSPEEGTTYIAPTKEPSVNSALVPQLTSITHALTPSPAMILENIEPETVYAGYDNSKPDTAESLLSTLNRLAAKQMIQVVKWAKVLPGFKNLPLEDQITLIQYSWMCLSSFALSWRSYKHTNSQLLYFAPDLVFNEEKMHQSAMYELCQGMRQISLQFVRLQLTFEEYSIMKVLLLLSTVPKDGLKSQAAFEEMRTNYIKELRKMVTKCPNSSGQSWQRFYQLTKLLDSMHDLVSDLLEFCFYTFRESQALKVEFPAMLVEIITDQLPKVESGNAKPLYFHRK
In words: Steroidal receptor binding screen, aldosterone. An excerpt: (§1) For determination of binding to other related steroidal receptors by compound of the present invention cloned receptors from cells indicated in the parentheses were used: estrogen Erα/Erβ and progesterone (human recombinant insect Sf9), testosterone (human LnCAP) and aldosterone (Wistar rat kidney).

Another data set has as its target T2, Progesterone receptor (Homo sapiens, UniProt P06401).
T2 construct: host or cells: insect Sf9
T2 sequence (P06401 1-933): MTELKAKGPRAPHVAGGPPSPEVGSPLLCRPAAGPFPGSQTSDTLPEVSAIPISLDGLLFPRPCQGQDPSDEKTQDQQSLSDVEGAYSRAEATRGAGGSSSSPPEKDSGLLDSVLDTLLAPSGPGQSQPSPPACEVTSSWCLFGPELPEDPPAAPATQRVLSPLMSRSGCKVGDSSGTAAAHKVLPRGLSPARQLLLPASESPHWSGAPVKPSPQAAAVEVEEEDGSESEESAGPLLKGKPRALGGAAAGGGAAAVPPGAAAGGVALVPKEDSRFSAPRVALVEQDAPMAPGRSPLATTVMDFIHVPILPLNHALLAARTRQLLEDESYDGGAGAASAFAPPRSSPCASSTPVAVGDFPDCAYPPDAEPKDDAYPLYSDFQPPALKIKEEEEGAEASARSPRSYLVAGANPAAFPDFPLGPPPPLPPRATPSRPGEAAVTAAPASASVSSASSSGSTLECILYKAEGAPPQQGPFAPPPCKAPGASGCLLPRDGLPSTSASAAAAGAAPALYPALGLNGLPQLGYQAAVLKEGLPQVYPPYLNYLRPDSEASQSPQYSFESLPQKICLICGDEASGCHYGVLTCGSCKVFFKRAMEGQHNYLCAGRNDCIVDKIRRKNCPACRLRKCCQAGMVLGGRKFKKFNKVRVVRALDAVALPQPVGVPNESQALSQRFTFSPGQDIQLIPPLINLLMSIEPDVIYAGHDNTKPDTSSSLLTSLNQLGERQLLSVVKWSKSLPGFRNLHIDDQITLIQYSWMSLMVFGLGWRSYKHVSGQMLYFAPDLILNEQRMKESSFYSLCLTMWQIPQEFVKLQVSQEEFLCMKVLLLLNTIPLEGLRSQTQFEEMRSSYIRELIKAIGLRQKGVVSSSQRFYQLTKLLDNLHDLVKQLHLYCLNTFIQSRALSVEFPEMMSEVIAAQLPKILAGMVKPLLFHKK
Briefly: Steroidal receptor binding screen, progesterone (human).
Description: as §1

The next data set relates to cotton pellet granuloma. In words: Cotton pellet granuloma test. In kind it is in vivo, SD rats. As for the experimental part: SD rats were used for assessing anti-inflammatory activity of test compound using cotton pellet granuloma method. Sterilized cotton pellets weighing 20 mg were prepared. Test compounds were dissolved in acetone so as to get the required quantity for each cotton pellet in 500 μl. Different pellets were impregnated with 500 μl of acetone to contain required quantity of test compounds and allowed to dry. Vehicle control pellets were impregnated with 500 μl acetone.
Rats were made into different groups. Two cotton pellets were surgically implanted into the scapular region of each rat. On sixth day of such implantation, pellets along with granuloma were taken out. Thymus gland was also separated from each animal and weighed. The pellets with granuloma were dried for 20 hrs at 60° C. and weighed. Mean weights of dry granuloma and thymus, body weight gain/100 g body weights were calculated.

Data set [1] is described as follows: Sephadex-induced lung edema. The note with it: Sprague-Dawley, rat, thymus, other: intratracheal; i.t., 24 hrs and 2 hrs prior to Sephadex; read-out: ED50 Thymus involution. It counts as in vivo, SD rats. As for the experimental part: (§2) Sephadex® G-200 was prepared in sterile saline (10 mg/ml) and allowed to swell for at least 3 days at room temperature. Test compounds were administered intratracheally at 24 hrs and 2 hrs prior to intratracheal administration of Sephadex® (5 mg/kg) under light ether anesthesia. Vehicle control animals were administered vehicle instead of Sephadex®. At 24 hr after Sephadex® instillation, lung and thymus were excised from individual animals and weighed. Wet weights of lungs and thymus were corrected for 100 g of initial body weight. The percentage increase in lung weight caused by Sephadex® and its inhibitions by the compounds, were calculated. The percentage inhibitions of thymus compared to vehicle control group were also calculated

Data set [2] concerns Sephadex-induced lung edema. In words: Sephadex-induced lung edema. The conditions noted are these: Rattus norvegicus; i.t., 24 hrs and 2 hrs prior to Sephadex; read-out: ED50 Lung edema inhibition. In kind it is in vivo, SD rats. As to the method:
as §2

Data set [3] in a line: Oral bioavailability and systemic plasma half-life. The note with it: in vivo.

As for `C[C@@H]1CC2C3C[C@H](F)C4=CC(=O)C=C[C@]4(C)[C@@]3(F)[C@@H](O)C[C@]2(C)[C@@]1(OC(=O)c1ccco1)C(=O)SCC#CCOC(=O)CC(C)(C)F` (stereo partly drawn) [Formula I, S-[4-(3-Fluoro-3-methylbutyryloxy)but-2-ynyl]6α,9α-difluoro-17α-(furan-2-yl)carbonyloxy-11β-hydroxy-16α-methyl-3-oxoandrosta-1,4-diene-17β-carbothioate], on Aldosterone receptor, the concentration for half-maximal inhibition (IC50) (as a rule, the concentration needed to halve the response being measured) is 328 nM and the Ki (in general, a dissociation constant, usually derived from enzyme kinetics or from competition with a known ligand) is 256 nM. At Progesterone receptor, the half-inhibitory concentration (IC50) amounted to 8.52 nM and the affinity corresponds to a Ki of 3.29 nM. For the same molecule, in the data set with cotton pellet granuloma (100 mcg/pellet), the “Mean % Inhibition of Granuloma A” value is given as 58.13% and the “Thymus wt. (% Decrease) B” value is on record as 4.67%. Besides, the “thymus involution and body weight gain (systemic side effect markers)” value in the data set with cotton pellet granuloma (even at 100 mcg per pellet) is given as “insignificant”. Besides, the 50% effective dose (ED50) (as a rule, the dose that gives a 50% effect, or the effect in half of the subjects) at 24 h in data set [1] is 8.7 mg/kg. Besides, the ED50 in data set [2] was 0.094 mg/kg. In addition, in data set [3], the systemic plasma half-life entry was “short systemic plasma half-life”. The oral bioavailability result in data set [3] (po) is listed as “low oral bioavailability”.
